Measurements published in patent US11767520B2, “Compositions and methods for treating lung inflammation” (aTyr Pharma, Inc., priority 2017, dated 2023).

Assays:
[1] = system: bleomycin-induced respiratory impairment; experiment: Respiratory measurements by whole body plethysmography, BLM rat model, combination study (Example 3, Table E6); type: in vivo, rat (male Sprague Dawley); design: Tidal Volume: unit not given here; details: for Expiratory Time / Inspiratory Time / Peak Expiratory Flow / Peak Inspiratory Flow / Tidal Volume / Respiratory Rate / Respiratory Minute Volume: mean; for Respiratory Rate: in breaths/min (unit assumed); for Respiratory Minute Volume: in mL/min (unit assumed)
Protocol: (§1) PBS or BLM was administered under isoflurane anesthesia. Excess rats were induced with BLM and used to replace any animals with excessive body weight loss.
(§2) All treatments commenced on Day 9.
(§3) In-life, body weights were measured and clinical observations were conducted daily. On Days 8, 15 and 21, animals were removed from their home cages and placed individually into whole body plethysmography chambers. After a 20-minute acclimatization phase, respiratory parameters were recorded for 10 minutes. Pre-study and on Days 10 and Day 17, whole blood was obtained from the tail vein and processed to serum for measurement of HRS^FC1.

[2] = system: bleomycin-induced lung inflammation; experiment: Interstitial/alveolar inflammatory cell infiltrate score, BLM rat model, combination study (Example 3); type: in vivo, rat (male Sprague Dawley); details: BLM-induced rats; alone or in combination, vs PO plus IV vehicles; data not shown
Protocol: (§4) The five lung lobes were collected and weighed. On Day 17, the right accessory lobe was retained and desiccated to obtain dry weight. The remaining right lung lobes were inflated and fixed in 10% neutral buffered formalin and embedded in paraffin for histological analysis. An approximately 50 mg piece of the left lung lobe was snap frozen and stored at −80° C. for potential RNA analysis. The remainder of the lobe was also snap frozen until analyzed for collagen content.
(§5) Sections for histology were stained using picrosirius red and were scored in a blinded fashion (1 score for each of the 3-4 lobes) by a veterinary pathologist using a modified Ashcroft score (Hubner et al., 2008). Hydroxyproline content was determined in the left lung lobe using a mass spectrometry method.
(§6) Slides were read by a veterinary pathologist and each of the 3 lobes evaluated was assigned 4 score types [Ashcroft for fibrosis (scores range from 0 to 8), perivascular/peribronchiolar inflammatory cell infiltrate (scores range from 0 to 5), interstitial/alveolar inflammatory cell infiltrate (scores range from 0 to 5), type II pneumocyte hyperplasia (scores range from 0 to 5)].

[3] = Body weight, BLM rat model, combination study (Example 3); type: in vivo, rat (male Sprague Dawley); details: BLM-induced rats; Nintedanib, Pirfenidone or Test Article (HRS^FC1 3 mg/kg IV weekly), alone or in combination, from Day 9
Protocol: as §1, §2, §3

[4] = system: bleomycin-induced lung fibrosis; experiment: Histological fibrosis (modified Ashcroft) score, BLM rat model, combination study (Example 3); type: in vivo, rat (male Sprague Dawley); details: BLM-induced rats; alone or in combination, vs PO plus IV vehicles; data not shown
Protocol: as §4, §5, §6

[5] = Body weight, BLM mouse model (Example 1); type: in vivo, mouse (male C57Bl/6J); details: BLM-induced mice; daily PO from Day 0: dexamethasone 0.25 mg/kg, Nintedanib 60 mg/kg
Protocol: (§7) Lung inflammation and fibrosis were induced in male C57Bl/6J mice by oropharyngeal administration of BLM. After the habituation phase mice were randomized based on body weight over the different groups. Under isoflurane anesthesia, 50 μl PBS or BLM was dripped onto the vocal cords facilitating aspiration. Mice were sacrificed at day 21 using a terminal bleed under isoflurane anesthesia.
(§8) Daily oral treatments commenced on Day 0, while daily IV treatments commenced on Day 8. Dosing was planned to continue until the day of termination (Day 21), however, due to high mortality in IV treated groups (see results), IV dosing was skipped on Day 19 and Day 20. […] Subsequently, the mice received 8% D20 (Kinemed, Emeryville) drinking water until sacrifice to maintain labeling of newly formed collagen. Body weight was monitored three times a week.

[6] = system: bleomycin-induced lung fibrosis; experiment: Lung wet and dry weight, BLM mouse model (Example 1); type: in vivo, mouse (male C57Bl/6J); details: BLM-induced mice; dexamethasone 0.25 mg/kg PO daily from Day 0
Protocol: as §7, §8
(§9) The five lung lobes were collected and isolated. Wet weight of the medial and accessory lung lobes was recorded. The lobes were then snap frozen and stored at <−70° C. until use for hydroxyproline analysis. The left lung lobe was inflated and fixed for 48 hours in 4% formaldehyde and embedded in paraffin for histological analysis. The cranial lung lobe was snap frozen and stored at −80° C. until shipment to Kinemed for the determination of new collagen formation.

[7] = system: bleomycin-induced lung fibrosis; experiment: Survival, BLM-induced lung fibrosis mouse model (Example 1, Table E2); type: in vivo, mouse (male C57Bl/6J); details: for Survival (number of animals surviving to study day): Dex. 0.25 mg/kg PO, BLM mice, 12 at start
Protocol: as §7, §8
The study commenced with 7 animals in the non-diseased control group and 12 animals in the BLM-induced groups. Survival is show in Table E2 below.

[8] = system: bleomycin-induced lung fibrosis; experiment: Histological fibrosis (modified Ashcroft) score, BLM mouse model (Example 1); type: in vivo, mouse (male C57Bl/6J); details: BLM-induced mice; dexamethasone 0.25 mg/kg/dose from day of BLM instillation; Summary value, significant
Protocol: as §9
Sections of the left lung lobe were stained using Masson's Trichrome and were scored in a blinded fashion using a modified Ashcroft score (Hubner et al., BioTechniques. 44:507-511, 514-507, 2008). Hydroxyproline content was determined in the medial and accessory lung lobes using acid hydrolysis followed by a chromogenic assay (QuickZyme Biosciences, Leiden, Netherlands). Newly formed collagen was measured in the cranial lung lobe by Kinemed Inc., Emeryville, USA using the fraction of body water enriched in 2H for normalization.

[9] = Serum HRS^FC1 levels by sandwich ELISA, BLM rat model (Example 3); type: in vivo, rat (male Sprague Dawley); details: for Serum levels of HRS^FC1 ~24 hours post dose, vs HRS^FC1 plus oral vehicle: FIG. 6; for Amount of HRS^FC1 in serum 24 hours after IV injection: second confirmatory study, identical methods, data not shown
Protocol: as §2, §3
Serum samples from animals treated with HRS^FC1 were used to determine levels of the protein in systemic circulation using standard sandwich ELISA techniques with antibodies that capture the HRS moiety and detect the Fc portion of the fusion protein.
All statistical analyses were performed using GraphPad Prism (GraphPad Software, San Diego, Calif.). Groups were compared using the one-way ANOVA test (histology, lung weights, collagen content) or two-way repeated measures ANOVA test (pharmacokinetics), followed, when appropriate by a post-hoc Dunnett test.

[10] = Day 8 (prior to any treatments), Pirf. PO + Vehicle IV group

In the case of `Cc1ccc(=O)n(-c2ccccc2)c1` [Pirf.], the Expiratory Time [1, 10] is reported as 0.153 s, the Inspiratory Time [1, 10] is reported as 0.114 s and the “Peak Expiratory Flow” value [1, 10] is reported as 19.5. The “Peak Inspiratory Flow” value [1, 10] was 17.5, the “Tidal Volume” value [1, 10] was 1.24 and the “Respiratory Rate” value [1, 10] was 247.6. The “Respiratory Minute Volume” value [1, 10] was 314.8, the Expiratory Time ([1]; Day 15, Pirf. PO + Vehicle IV) was 0.193 s and the Inspiratory Time ([1]; Day 15, Pirf. PO + Vehicle IV) was 0.135 s. The “Peak Expiratory Flow” value ([1]; Day 15, Pirf. PO + Vehicle IV) was 15.0, the “Peak Inspiratory Flow” value ([1]; Day 15, Pirf. PO + Vehicle IV) was 15.6 and the “Tidal Volume” value ([1]; Day 15, Pirf. PO + Vehicle IV) was 1.23. The “Respiratory Rate” value ([1]; Day 15, Pirf. PO + Vehicle IV) was 206.2, the “Respiratory Minute Volume” value ([1]; Day 15, Pirf. PO + Vehicle IV) was 260.2 and the Expiratory Time ([1]; Day 21, Pirf. PO + Vehicle IV) was 0.234 s. For the same molecule, the Inspiratory Time ([1]; Day 21, Pirf. PO + Vehicle IV) was 0.148 s, the “Peak Expiratory Flow” value ([1]; Day 21, Pirf. PO + Vehicle IV) was 13.0 and the “Peak Inspiratory Flow” value ([1]; Day 21, Pirf. PO + Vehicle IV) was 15.8. For the same molecule, the “Tidal Volume” value ([1]; Day 21, Pirf. PO + Vehicle IV) was 1.43, the “Respiratory Rate” value ([1]; Day 21, Pirf. PO + Vehicle IV) was 186.5 and the “Respiratory Minute Volume” value ([1]; Day 21, Pirf. PO + Vehicle IV) was 259.6.

In the case of `Cc1ccc(=O)n(-c2ccccc2)c1` [Pirfenidone, pirfenidone], the “Interstitial inflammatory cell infiltrate” value [2] is reported as “no significant effect”, the “Body weight curves vs respective controls” value [3] is reported as “None of the groups treated with Nintedanib, Pirfenidone or Test Article alone or in combination had body weight curves that significantly differed” and the “BLM-induced alterations in respiratory parameters” value ([1]; BLM-induced rats, Day 15 and Day 21, Nintedanib, Pirfenidone or Test Article (HRS^FC1)) is reported as “did not significantly impact”. For the same molecule, the “Interstitial inflammatory cell infiltrate (as printed in the Ashcroft score paragraph)” value [4] was “no significant effect”.

With `C[C@@H]1C[C@H]2[C@@H]3CCC4=CC(=O)C=C[C@]4(C)[C@@]3(F)[C@@H](O)C[C@]2(C)[C@@]1(O)C(=O)CO` [dexamethasone] the “Body weight, of initial body weights” value [5] was “around 90%”, the “Decrease of lung wet weight compared to PO vehicle group” value [6] was 15.6% and the Survival rate ([7]; BLM-induced mice to Day 21, daily PO from Day 0: dexamethasone 0.25 mg/kg, Nintedanib 60 mg/kg) was 75%. The “Survival (number of animals surviving to study day)” value ([7]; Day 11) was 12, the “Survival (number of animals surviving to study day)” value ([7]; Day 12) was 12 and the “Survival (number of animals surviving to study day)” value ([7]; Day 13) was 11. The “Survival (number of animals surviving to study day)” value ([7]; Day 14) was 10, the “Survival (number of animals surviving to study day)” value ([7]; Day 15) was 10 and the “Survival (number of animals surviving to study day)” value ([7]; Day 16) was 10. The “Survival (number of animals surviving to study day)” value ([7]; Day 17) was 10, the “Survival (number of animals surviving to study day)” value ([7]; Day 18) was 9 and the “Survival (number of animals surviving to study day)” value ([7]; Day 19) was 9. The “Survival (number of animals surviving to study day)” value ([7]; Day 20) was 9, the “Survival (number of animals surviving to study day)” value ([7]; Day 21) was 9 and the “Improvement of Ashcroft fibrosis score” value [8] was 11.3%.

For “HRS^FC1: Test Article of Examples 2 and 3; HRS-Fc fusion protein Fc-HRS(2-60)”, the “Serum levels of HRS^FC1, change between Days 17 and 22” value ([9]; BLM-induced rats, 3 mg/kg IV on Days 9 and 16) was “decreased”, the “Serum levels of HRS^FC1” value ([9]; BLM-induced rats, 3 mg/kg IV on Days 9 and 16, Days 10, 17 and 22) was “detectable” and the “Serum levels of HRS^FC1 ~24 hours post dose, vs HRS^FC1 plus oral vehicle” value ([9]; BLM-induced rats, concomitant oral Nintedanib 60 mg/kg once daily) was “significantly increased”. The “Serum levels of HRS^FC1 ~24 hours post dose, vs HRS^FC1 plus oral vehicle” value ([9]; BLM-induced rats, concomitant oral Pirfenidone 70 mg/kg per dose three times daily) was “significantly increased”, the “Amount of HRS^FC1 in serum 24 hours after IV injection” value ([9]; concomitant Nintedanib) was “increased” and the “Amount of HRS^FC1 in serum 24 hours after IV injection” value ([9]; concomitant Pirfenidone) was “increased”.
